For one assay, the system named is Arg I and/or Arg II. Briefly: pH effect: inhibitory potency at pH 7.5 compared with pH 9.5. Format: biochemical, human. To be noted: for increased potency for at least one isozyme: Table 2, pH 7.5 vs pH 9.5; for potency at pH 7.5 as compared to pH 9.5, arginases: both or at least one of the arginases. On the procedure:
(§1) For some compounds, their inhibitory potency at pH 7.5 was compared to the inhibitory potency of ABH at pH 7.5.
The rate of urea production was measured in the presence of twelve different concentrations of each potential inhibitor compound. In a typical assay, seven different compounds were tested relative to a control inhibitor (e.g. ABH) against one enzyme (either human ArgI or human ArgII) at a particular pH (either 9.5 or 7.5). The pH of the solution was controlled using an appropriate pH buffering compound at 60 mM concentrations; for example, 60 mM glycine (pH 9.5) or 60 mM HEPES (pH 7.5). The half maximal inhibitory concentration (IC50) was determined by constructing a dose-response curve. As IC50 values are dependent upon the measurement conditions, the IC50 values were converted to the inhibitor binding affinity (K1) using the Cheng-Prusoff equation and the affinity constant (Km) of L-arginine which was estimated with the same activity assay (see, e.g., Cheng et al., 1973, Biochem. Pharmacol. 22:3099-108).

The target of the next assay is T1, human arginase I (Homo sapiens, UniProt P05089).
T1 sequence (P05089 1-322): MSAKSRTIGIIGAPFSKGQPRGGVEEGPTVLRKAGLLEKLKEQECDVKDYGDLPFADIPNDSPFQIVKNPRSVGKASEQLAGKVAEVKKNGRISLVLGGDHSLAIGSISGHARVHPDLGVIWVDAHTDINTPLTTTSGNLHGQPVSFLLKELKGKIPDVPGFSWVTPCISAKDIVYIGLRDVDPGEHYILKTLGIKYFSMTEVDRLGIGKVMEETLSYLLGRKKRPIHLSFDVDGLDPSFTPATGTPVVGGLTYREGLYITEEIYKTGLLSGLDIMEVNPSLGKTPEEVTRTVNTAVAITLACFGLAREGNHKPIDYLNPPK
Briefly: Arginase inhibition, QuantiChrom colorimetric urea assay, IC50 converted to Ki. Type of assay: biochemical. How it is done:
as §1
(§2) Quantitative determination of arginase activity was performed in a 96-well format by a colorimetric method using the QuantiChrom™ Arginase Assay Kit available from BioAssay Systems (Hayward, Calif., Catalog No. DARG-200) according to the manufacturer's protocol. Modifications were made to reagent quantities to suit the assaying of a highly purified sample.
(§3) The intensity of the color was directly proportional to the arginase activity in the sample.
(§4) The rate of urea production was measured in the presence of twelve different concentrations of each potential inhibitor compound. In a typical assay, seven different compounds were tested relative to a control inhibitor (e.g. ABH) against one enzyme (either human ArgI or human ArgII) at a particular pH (either 9.5 or 7.5). The pH of the solution was controlled using an appropriate pH buffering compound at 60 mM concentrations; for example, 60 mM glycine (pH 9.5) or 60 mM HEPES (pH 7.5). The half maximal inhibitory concentration (IC50) was determined by constructing a dose-response curve.

The target of a further assay is T2, human arginase II (Homo sapiens, UniProt P78540).
T2 sequence (P78540 23-354): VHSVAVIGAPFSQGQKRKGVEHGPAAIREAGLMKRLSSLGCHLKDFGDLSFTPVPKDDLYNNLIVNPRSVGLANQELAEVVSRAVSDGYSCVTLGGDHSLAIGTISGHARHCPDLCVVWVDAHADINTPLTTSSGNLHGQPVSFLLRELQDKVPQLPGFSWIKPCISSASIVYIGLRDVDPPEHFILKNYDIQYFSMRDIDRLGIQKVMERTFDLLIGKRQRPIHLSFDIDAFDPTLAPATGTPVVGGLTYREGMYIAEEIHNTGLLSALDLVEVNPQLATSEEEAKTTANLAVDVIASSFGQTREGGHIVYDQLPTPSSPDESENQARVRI
The assay is described as above. Type of assay: biochemical. On the procedure:
as §1, §2, §3, §4

[1] abbreviates: Table 3, pH 7.5, read-out: human Arginase I pH 7.5, Ki assigned value.
Where [2] appears, read: Table 3, pH 9.5, read-out: human Arginase I pH 9.5, Ki assigned value.
The mark [3] stands for this setting: Table 3, pH 7.5, read-out: human Arginase II pH 7.5, Ki assigned value.
[4] abbreviates: Table 3, pH 9.5, read-out: human Arginase II pH 9.5, Ki assigned value.
Setting [5] is: Table 2, pH 7.5, read-out: human arginase I pH 7.5, Ki assigned value.
[6] abbreviates: Table 2, pH 9.5, read-out: human arginase I pH 9.5, Ki assigned value.
[7] abbreviates: Table 2, pH 7.5, read-out: human arginase II pH 7.5, Ki assigned value.
[8] abbreviates: Table 2, pH 9.5, read-out: human arginase II pH 9.5, Ki assigned value.

The results in this text go back to patent US9447122B2, “Arginase inhibitors and methods of use thereof” (AstraZeneca AB, priority 2010, dated 2016).

Counter-ions that a name gives are not always drawn. Like-named read-outs stand apart in the source and are kept apart here. Bounds are passed on as bounds.

Regarding `NC(CCCCB(O)O)(CCCN1CCN(C(=O)c2ccc(Cl)c(Cl)c2)CC1)C(=O)O` (stereo not drawn) [Example 129, 2-amino-6-borono-(3-(4-(3,4-dichlorobenzoyl)piperazine-1-yl)propyl)hexanoic acid], the “selectivity for arginase I over arginase II” value with Arg I and/or Arg II (at pH 7.5 / lower pHs) is on record as “selectivity for arginase I over arginase II”. The Ki (as a rule, a measure of affinity in units of concentration, obtained from inhibition or displacement) at human arginase I (setting [1]) fell in the range of 11 to 50 nM; at human arginase I (setting [2]), 51 to 100 nM; on human arginase II (setting [3]), 251 to 400 nM; on human arginase II (setting [4]) it was 51 to 100 nM.

In the case of `NC(CCCCB(O)O)(CCCC1CCN(Cc2ccc(F)cc2)CC1)C(=O)O` (stereo not drawn) [Comparative Example 3, reference compound], the “increased potency for at least one isozyme” value in the assay on Arg I and/or Arg II is recorded as “no ^b”. In addition, the “potency at pH 7.5 as compared to pH 9.5, arginases” value with Arg I and/or Arg II is listed as “decreased potencies”. Also, the Ki on human arginase I (setting [5]) lay within 251 to 400 nM; on human arginase I (setting [6]), 11 to 50 nM; at human arginase II (setting [7]), 251 to 400 nM; at human arginase II (setting [8]), 11 to 50 nM.

Turning to `NC(CCCCB(O)O)(CCCC1CCNCC1)C(=O)O` (stereo not drawn) [Comparative Example 1, reference compound], in the assay with Arg I and/or Arg II, the “increased potency for at least one isozyme” value is given as “no ^b”. The “potency at pH 7.5 as compared to pH 9.5, arginases” value in the assay with Arg I and/or Arg II is recorded as “lower potencies”. The inhibition constant Ki on human arginase I (setting [5]) is 101 to 250 nM; on human arginase I (setting [6]) it was 11 to 50 nM; on human arginase II (setting [7]), > 400 nM; on human arginase II (setting [8]), < 10 nM.

As for `NC(CCCCB(O)O)(CCCC1CCN(Cc2ccc(Cl)c(Cl)c2)CC1)C(=O)O` (stereo not drawn) [Comparative Example 2, reference compound], the “increased potency for at least one isozyme” value in the assay with Arg I and/or Arg II is on record as “no ^b”. Besides, the “potency at pH 7.5 as compared to pH 9.5, arginases” value with Arg I and/or Arg II is on record as “decreased potencies”. The Ki lay in the range of 101 to 250 nM at human arginase I (setting [5]), 11 to 50 nM on human arginase I (setting [6]), 101 to 250 nM at human arginase II (setting [7]) and 11 to 50 nM on human arginase II (setting [8]).

For the compound `NC(CCCCB(O)O)(CCCN1CCNCC1)C(=O)O` (stereo not drawn) [Comparative Example 4, 2-Amino-6-borono-2-(3-(piperazine-1-yl)propyl)hexanoic acid trifluoroacetate salt, reference compound], the “increased potency for at least one isozyme” value in the assay with Arg I and/or Arg II is “yes ^a”. In addition, the Ki on human arginase I (setting [5]) was 11 to 50 nM; on human arginase I (setting [6]) it was 51 to 100 nM; at human arginase II (setting [7]), > 400 nM; at human arginase II (setting [8]), 11 to 50 nM. Besides, the “change of human arginase I inhibitory potency” value at human arginase I (pH decreased from 9.5 to 7.5) is “increased potency”.

Take `NC(CCCCB(O)O)(CCCCN1CCN(c2ccc(Cl)c(Cl)c2)CC1)C(=O)O` (stereo not drawn) [Example 94]: the inhibition constant (Ki) on human arginase I (setting [1]) is 11 to 50 nM; on human arginase I (setting [2]), 11 to 50 nM; on human arginase II (setting [3]), < 10 nM; at human arginase II (setting [4]) it was 11 to 50 nM.

Take `CN(C)CCNCCCC(N)(CCCCB(O)O)C(=O)O` (stereo not drawn) [Example 89]: the Ki on human arginase I (setting [1]) was < 10 nM; at human arginase I (setting [2]), < 10 nM; at human arginase II (setting [3]), < 10 nM; on human arginase II (setting [4]) it was 11 to 50 nM.

Consider `NC(CCCCB(O)O)(CCCN1CCN(CCc2ccccc2)CC1)C(=O)O` (stereo not drawn) [Example 14], for which the Ki on human arginase I (setting [1]) is < 10 nM; at human arginase I (setting [2]), 11 to 50 nM; on human arginase II (setting [3]), < 10 nM; on human arginase II (setting [4]), 11 to 50 nM.

For the compound `NC(CCCCB(O)O)(CCCNCCc1ccccc1)C(=O)O` (stereo not drawn) [Example 67], the Ki at human arginase I (setting [1]), at human arginase I (setting [2]), at human arginase II (setting [3]) and on human arginase II (setting [4]) was < 10 nM throughout.

For `NC(CCCCB(O)O)(CCCN1CC(c2ccccc2)C1)C(=O)O` (stereo not drawn) [Example 58], the Ki on human arginase I (setting [1]) was < 10 nM; on human arginase I (setting [2]), 11 to 50 nM; at human arginase II (setting [3]) it was 11 to 50 nM; at human arginase II (setting [4]) it was 11 to 50 nM.

Regarding `CN1CCN(CCCC(N)(CCCCB(O)O)C(=O)O)C(c2ccccc2)C1` (stereo not drawn) [Example 46], the Ki on human arginase I (setting [1]) was 11 to 50 nM; on human arginase I (setting [2]), 11 to 50 nM; on human arginase II (setting [3]), 11 to 50 nM; on human arginase II (setting [4]), < 10 nM.

In the case of `NC(CCCCB(O)O)(CCCN1CCCCC1c1ccc(F)cc1)C(=O)O` (stereo not drawn) [Example 17], the Ki at human arginase I (setting [5]) is < 10 nM; at human arginase I (setting [6]) it was 11 to 50 nM; on human arginase II (setting [7]), 101 to 250 nM; on human arginase II (setting [8]) it was 11 to 50 nM.

Take `CN(CCCC(N)(CCCCB(O)O)C(=O)O)C1CCCCC1` (stereo not drawn) [Example 78]: the Ki at human arginase I (setting [1]) lay in the range of 11 to 50 nM; at human arginase I (setting [2]), 11 to 50 nM; at human arginase II (setting [3]) it was 51 to 100 nM; on human arginase II (setting [4]) it was 11 to 50 nM.

Turning to `CN1CCN(CCCC(N)(CCCCB(O)O)C(=O)O)CC1` (stereo not drawn) [Example 106], the Ki on human arginase I (setting [1]) fell in the range of 11 to 50 nM; on human arginase I (setting [2]) it was 11 to 50 nM; on human arginase II (setting [3]), 11 to 50 nM; on human arginase II (setting [4]) it was 251 to 400 nM.

Consider `NC(CCCCB(O)O)(CCCN1CCCC(c2ccccc2)C1)C(=O)O` (stereo not drawn) [Example 26, 2-amino-6-borono-2-(3-(3-phenylpiperidin-1-yl)propyl)hexanoic acid], for which the Ki at human arginase I (setting [1]) is < 10 nM; on human arginase I (setting [2]) it was 11 to 50 nM; at human arginase II (setting [3]) it was < 10 nM; at human arginase II (setting [4]), 11 to 50 nM.

For `NC(CCCCB(O)O)(CCCN1CCN(c2ccc(C(F)(F)F)cn2)CC1)C(=O)O` (stereo not drawn) [Example 41], the Ki on human arginase I (setting [1]) was < 10 nM; at human arginase I (setting [2]), 11 to 50 nM; on human arginase II (setting [3]) it was < 10 nM; on human arginase II (setting [4]), 11 to 50 nM.

As to `NC(CCCCB(O)O)(CCCN1CCN(c2ccc(Cl)c(Cl)c2)CC1)C(=O)O` (stereo not drawn) [Example 16], the Ki on human arginase I (setting [1]) lay in the range of 11 to 50 nM; at human arginase I (setting [2]), 51 to 100 nM; on human arginase II (setting [3]) it was 51 to 100 nM; at human arginase II (setting [4]), 11 to 50 nM.

As to `NC(CCCCB(O)O)(CCCN1CCN(Cc2ccc(F)cc2)CC1)C(=O)O` (stereo not drawn) [Example 11], the Ki at human arginase I (setting [5]) was < 10 nM; at human arginase I (setting [6]), 11 to 50 nM; on human arginase II (setting [7]), 11 to 50 nM; on human arginase II (setting [8]), 11 to 50 nM.
